Entries after “also recorded” stand apart in the source; their conditions may differ.
What was measured:
CD62L shedding [1] = assay: Soluble CD62L ELISA, unstimulated PBMC; format: cell-based, human; conditions: Homo sapiens, PBMC, read-out: Shedding inhibition Non-stim.
recombinant ADAM10 = target: T1, recombinant ADAM10 (Homo sapiens, UniProt O14672); assay: Cleavage of fluorogenic CD62L peptide by recombinant ADAM10; format: biochemical; conditions: 2 μM compound
T1 construct: purchased R&D systems, Inc
T1 sequence (O14672 214-748): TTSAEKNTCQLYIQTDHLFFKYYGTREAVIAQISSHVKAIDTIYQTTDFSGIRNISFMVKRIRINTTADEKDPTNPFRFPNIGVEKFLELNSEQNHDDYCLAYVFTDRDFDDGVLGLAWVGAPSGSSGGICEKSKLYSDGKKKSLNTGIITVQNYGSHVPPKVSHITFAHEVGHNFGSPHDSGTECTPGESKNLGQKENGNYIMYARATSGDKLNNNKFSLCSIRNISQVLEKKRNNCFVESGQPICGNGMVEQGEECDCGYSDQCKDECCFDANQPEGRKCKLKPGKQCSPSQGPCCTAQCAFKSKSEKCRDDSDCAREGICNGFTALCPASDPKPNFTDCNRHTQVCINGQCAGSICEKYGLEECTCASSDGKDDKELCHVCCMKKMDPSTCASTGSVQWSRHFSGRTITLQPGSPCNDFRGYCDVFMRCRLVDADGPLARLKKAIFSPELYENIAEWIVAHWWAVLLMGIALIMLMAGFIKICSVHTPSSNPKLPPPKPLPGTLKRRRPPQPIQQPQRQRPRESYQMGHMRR
Source text: A fluorescence based enzymatic assay was used to measure the cleavage of fluorogenic TNF-α and L-selectin (CD62L) peptides by either recombinant ADAMs or PBMC from healthy donors. The fluorogenic substrate, synthesized by Biomatik^3, was a Dabcyl (4-(4-dimethylaminophenylazo)benzoyl)- and Edans (5-[(2-aminoethyl)amino]naphthalene-1-sulfonic acid)- conjugated 12 amino acid peptide: Dabcyl-[…]-Edans that corresponds to the extracellular membrane proximal region of CD62L. The fluorescence of the Edans group is quenched by the Dabcyl group in the intact substrate and the cleavage of the CD62L substrate peptide results in a fluorescence emission at 490 nm. The cleavage of fluorogenic TNF-α peptide (ES003, R &D systems, Inc) was detected at emission of 405 nm. The cleavage was measured in a kinetic assay every 3 min for 4 h in black 96-well plates using a Synergy_h1 fluorescent plate reader (BioTek) with 340 nm excitation and 490 nm emission wavelengths. For cleavage using recombinant ADAMs, each enzymatic reaction contained 50–200 ng of recombinant ADAM17 or 10 (R&D systems, Inc) mixed with 5–10 μM fluorogenic TNFα peptide ES003 (R&D systems, Inc) or CD62L peptide with or without indicated inhibitors in 100 μL assay buffer of 25 mM Tris at pH 9.0, 2.5 μM ZnCl2, and 0.005% Brij-35 (w/v). For cell-based cleavage of the fluorescent CD62L-peptide substrate, 300,000 PBMC at 2×10^6/ml density were mixed with 10 μM fluorescent CD62L-peptide and various inhibitors in a black 96-well plate in 150 μL culture media (RPMI 1640, 10% FBS, 1% penicillin streptomycin). PBMC were stimulated with anti-CD3 antibody for 2–4 days as described above.
Supplemental Figure 3. Inhibition of ADAM10 enzymatic activity by 14mb. A) chemical structure of 3-Cl-phenylpyrrolidine tartrate diamide analogs 14m and 15. B)Inhibition of recombinant ADAM10 cleavage of a fluorogenic CD62L peptide substrate in the presence of titrating concentrations of 14mb. The concentration-dependent enzymatic activities are fitted with non-linear regression of normalized inhibition response model. C). Inhibition of ADAM10 enzymatic cleavage of fluorogenic CD62L peptide by various […]

CD62L shedding [2] = assay: Soluble CD62L ELISA, anti-CD3/PHA stimulated PBMC or CD4 T cells; format: cell-based, human; conditions: for inhibition at 10 µM: Homo sapiens, 10 μM compound, stimulated cells; for inhibition at 10 µM / effect on CD62L shedding / soluble CD62L: ELISA; for effect on CD62L shedding / soluble CD62L: stimulated PBMC or CD4 T cells
In short: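 Healthy-donor PBMC stimulated with okt3 anti-CD3 (~0.2 μg/mL final) plus IL-2 (20 U/mL final) in presence of compound. Soluble CD62L in supernatants measured by ELISA; viability checked by AO/PI staining.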

[3] = 10 μM compound, non-stimulated cells, ELISA

Row | Structure (SMILES) | inhibition at 10 µM (CD62L shedding [1]; [3]) [%] | inhibition of ADAM10 cleavage of CD62L substrate peptide (recombinant ADAM10) | inhibition at 10 µM (CD62L shedding [2]) [%] | effect on CD62L shedding / soluble CD62L (CD62L shedding [2]) | inhibition at 10 µM (CD62L shedding [1]) [%] | effect on 3,4-dichloroisocouman enhanced CD62L shedding (CD62L shedding [2]; stimulated PBMC)
1 | CC1(C)SCCN(S(=O)(=O)c2ccc(Oc3ccncc3)cc2)[C@H]1C(=O)NO [prinomastat] | > 50 | completely suppressed | > 50 | suppressed CD62L shedding | – | –
2 | CNC(=O)[C@H](Cc1ccccc1)NC(=O)[C@H](CC(C)C)[C@H](CSc1cccs1)C(=O)NO [BB-94, Batimastat] | – | indistinguishable with that of fluorogenic peptide CD62L-only without the enzyme; also recorded: completely suppressed | > 50 | suppressed CD62L shedding; also recorded: inhibited | > 50 | blocked
3 | CNC(=O)[C@@H](NC(=O)[C@H](CCCc1ccccc1)[C@H](C)N(O)C=O)C(C)(C)C [GI254023X] | 20 to 50 | completely suppressed | > 50 | suppressed CD62L shedding | – | –

From paper PMC10987949, “Inhibition of HIV-1 release by ADAM metalloproteinase inhibitors” (Frontiers in Microbiology, 2024)
